Values joined by “and” are separate entries in the source; they are usually repeats but may differ in a detail not shown here. Equal values may be shown once.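 The compound was tested at five concentrations on cells cultured in 96-well plates, with a 48-hour exposure period. GI50 = concentration required for 50% inhibition of growth. Definition used: TGI = concentration required for complete inhibition of growth.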
How the values were obtained:
Assay in all cases: growth of human tumour cells (NCI), 48 h
MOLT-4 leukemia = tested on: MOLT-4 leukemia
HCT-15 colon = tested on: HCT-15 colon
OVCAR-5 ovarian = tested on: OVCAR-5 ovarian
SF-295 CNS = tested on: SF-295 CNS
NCI-H23 lung = tested on: NCI-H23 lung
KM12 colon = tested on: KM12 colon
SNB-75 CNS = tested on: SNB-75 CNS
COLO 205 colon = tested on: COLO 205 colon
U251 CNS = tested on: U251 CNS

| SMILES | TGI (MOLT-4 leukemia) | TGI (HCT-15 colon) [µM] | TGI (OVCAR-5 ovarian) | TGI (SF-295 CNS) | TGI (NCI-H23 lung) | TGI (KM12 colon) [µM] | TGI (SNB-75 CNS) | TGI (COLO 205 colon) | TGI (U251 CNS) [µM] | GI50 (MOLT-4 leukemia) | GI50 (HCT-15 colon) | GI50 (OVCAR-5 ovarian) | GI50 (SF-295 CNS) | GI50 (NCI-H23 lung) | GI50 (KM12 colon) | GI50 (SNB-75 CNS) | GI50 (COLO 205 colon) | GI50 (U251 CNS) |
| --- | --- | --- | --- | --- | --- | --- | --- | --- | --- | --- | --- | --- | --- | --- | --- | --- | --- | --- |
| CC(C)(C)NNC(=O)/C(=C/c1ccc([N+](=O)[O-])cc1)NC(=O)c1ccccc1 | > 100 µM | > 100 | > 100 µM | > 100 µM | > 100 µM | > 100 | > 100 µM | 79.2 µM | > 100 |  |  |  |  |  |  |  |  |  |
| CC(NS(=O)(=O)c1ccc([N+](=O)[O-])cc1)C(=O)O (stereo not given) | > 100 µM | > 100 | > 100 µM | > 100 µM | > 100 µM | > 100 | > 100 µM | > 100 µM | > 100 |  |  |  |  |  |  |  |  |  |
| O=C1[C@@H]2C(c3ccccc3Br)=NO[C@@H]2C(=O)N1c1ccc(Cc2ccc(N3C(=O)[C@H]4C(c5ccccc5Br)=NO[C@H]4C3=O)cc2)cc1 | > 100 µM | > 100 | > 100 µM | > 100 µM | > 100 µM | > 100 | > 100 µM | > 100 µM | > 100 |  |  |  |  |  |  |  |  |  |
| C=CC[n+]1c(/C=C/C=C2\N(C)c3ccccc3C2(C)C)sc2ccc(OC)cc21 | 5.73 µM | 16.4 | 14.9 µM | 3 µM | 12.9 µM | 11.7 | 14.1 µM | 0.591 µM | 14.4 | 0.309 µM | 2.82 µM | 0.504 µM | 0.18 µM | 0.0761 µM | 0.249 µM | 0.283 µM | 0.188 µM | 0.293 µM |
| NCCNc1c2c(c(NCCN)c3c(CO)c[nH]c13)C(=O)c1ccccc1C2=O | > 100 µM | > 100 | > 100 µM | 43.8 µM | > 100 µM | > 100 | > 100 µM | > 100 µM | > 100 | 3.93 µM | > 100 µM | 48.7 µM | 6.16 µM | 17.2 µM | 17.3 µM | 24.3 µM | 8.38 µM | 2.53 µM |
| CC1CC[C@]2(C(=O)O)CCC3(COC(=O)/C=C\c4ccc(O)cc4)C(=CCC4[C@@]5(C)CC[C@H](O)C(C)(C)C5CC[C@]43C)[C@@H]2[C@H]1C (stereo not given in full) | > 100 µM | > 100 | 48.9 µM | 31.7 µM | 28.5 µM | 25.7 | 80.9 µM | 50.9 µM | 23.4 |  |  |  |  |  |  |  |  |  |
| CCOC(=O)c1c2c(c(O)c3ccccc3c(O)n(Cc3ccc(OC)cc3)c1C)C(=O)C=CC2=O | > 100 µM | > 100 | > 100 µM | > 100 µM | > 100 µM | > 100 | > 100 µM | > 100 µM | > 100 | 76 µM | > 100 µM | > 100 µM | > 100 µM | > 100 µM | > 100 µM | > 100 µM | > 100 µM | > 100 µM |
| CC1CC(C2=CC=CCS2)=Nc2ccccc2S1 (stereo not given) | > 100 µM | > 100 | > 100 µM | > 100 µM | > 100 µM | > 100 | 78.6 µM | > 100 µM | > 100 |  |  |  |  |  |  |  |  |  |
| CCc1nc(N)nc(N)c1-c1ccc(NCCN)c([N+](=O)[O-])c1 | > 82.8 µM | > 100 | > 100 µM | > 100 µM | > 100 µM | > 100 | > 89.7 µM | 40.4 µM | > 100 |  |  |  |  |  |  |  |  |  |
| Cc1ccc(NC(=O)c2cc3cc(N=Nc4ccc(Br)cc4)ccc3oc2=O)cc1 | > 100 µM | > 100 | > 100 µM | > 100 µM | > 100 µM | > 100 | > 100 µM | > 100 µM | > 100 |  |  |  |  |  |  |  |  |  |
| COc1ccc(OC)c(/C=N/NC(=O)Cc2csc3nc(-c4ccc(Br)cc4)cn23)c1 | 8.08 µM | 65.1 | > 100 µM | 34.6 µM | 52.3 µM | > 100 | 65.4 µM | > 100 µM | 31.4 | 3.47 µM | 7.42 µM | 50.2 µM | 12.3 µM | 19.3 µM | 8.84 µM | 23.9 µM | 35.7 µM | 13.8 µM |
| COc1cc(C(=O)/C=C/c2c(C)n([O-])c3ccc(C)cc3[n+]2=O)cc(OC)c1OC | > 29.8 µM | 4.48 | 29.6 µM | > 68 µM | 26.4 µM | 27.6 | 31.7 µM | 3.99 µM | 21 | 3.57 µM | 1.8 µM | 12.8 µM | 22.8 µM | 10.4 µM | 13 µM | 14.5 µM | 2 µM | 7.74 µM |
| C/C(=N\NC(=O)c1sc(=S)n(C)c1N)c1cc2ccccc2o1 | 29.1 µM | 24.9 | 48.2 µM | 30 µM | 58.8 µM | 25.8 | 42.6 µM | 50.6 µM | 29 | 3.51 µM | 10.6 µM | 16.4 µM | 14.4 µM | 17.7 µM | 9.12 µM | 17.3 µM | 17.1 µM | 13.6 µM |
| COc1cc(NS(C)(=O)=O)ccc1Nc1c2ccc([N+](=O)[O-])cc2nc2c(C)cccc12 | 4.37 µM | 4.32 | 14.4 µM | 11.1 µM | 9.26 µM | 8.15 | 7.48 µM | 13.5 µM | 11.2 | 0.0409 µM | 1.38 µM | 2.87 µM | 0.171 µM | 0.567 µM | 0.814 µM | 0.311 µM | 2.05 µM | 0.214 µM |
| N#Cc1c(-c2ccccc2)nc(SCC2CO2)nc1N1CCOCC1 (stereo not given) | > 74.6 µM | > 100 | > 83.3 µM | 28.2 µM | > 100 µM | > 100 | > 82.6 µM | 67.6 µM | > 100 | 10.1 µM | 4.71 µM | 5.05 µM | 2.67 µM | 8.51 µM | 25.8 µM | 1.91 µM | 11.3 µM | 19.2 µM |
| COc1cccc2c1C(=O)C=CC2=O | 2.34 µM | 24.2 | 33 µM | 29.2 µM | 30 µM | 25 | 29.9 µM | 20.5 µM | 13.9 |  |  |  |  |  |  |  |  |  |
| F | > 6870 µM | > 6870 | > 6870 µM | 6380 µM | > 6870 µM | > 6870 | 5570 µM | > 6870 µM | > 6870 | > 6870 µM | 3800 µM | 2560 µM | 2050 µM | 5260 µM | 2610 µM | 2160 µM | 2830 µM | 2870 µM |
| CN(Cc1cnc2nc(N)nc(N)c2n1)c1ccc(C(=O)NC(CCC(=O)O)C(=O)O)cc1C(F)(F)F (stereo not given) | > 100 µM | > 100 | > 100 µM | > 100 µM | > 100 µM | > 100 | > 100 µM | > 100 µM | > 100 |  |  |  |  |  |  |  |  |  |
| COC(=O)C1=C(c2ccc(OC)c(OC)c2)OC(c2ccc(OC)c(OC)c2)C1 (stereo not given) | 47.5 µM | > 100 | > 100 µM | > 100 µM | > 100 µM | > 100 | > 100 µM | 36.4 µM | > 100 |  |  |  |  |  |  |  |  |  |
| C/C(CN1C(=O)c2ccccc2C1=O)=N\NS(=O)(=O)c1ccc(C)cc1 | > 100 µM | > 100 | > 100 µM | > 100 µM | > 100 µM | > 100 | > 100 µM | > 100 µM | > 100 |  |  |  |  |  |  |  |  |  |
| C=C1C(=O)O[C@H]2[C@H]1CC/C(CNC(=O)Cc1c[nH]c3ccccc13)=C\CC[C@@]1(C)O[C@@H]21 | 5.75 µM | 13.1 | 24.2 µM | 26.6 µM | 18.6 µM | 21.6 | 35.5 µM | 1.14 µM | 16.5 | 1.83 µM | 1.58 µM | 10.2 µM | 13 µM | 3.54 µM | 8.44 µM | 12.8 µM | 0.313 µM | 2.52 µM |
| C[C@@H]1COCCN1c1cc(C2([S@](C)(=N)=O)CC2)nc(-c2ccnc3[nH]ccc23)n1 | 9.54 µM and > 10 µM | > 100 | 99.8 µM and > 10 µM | 32.9 µM and > 10 µM | 34.3 µM and > 10 µM | > 100 | 20.3 µM and > 10 µM | 43.1 µM and > 10 µM | > 100 | 2.58 µM and 3.39 µM | 4.34 µM and 4.51 µM | 5.03 µM and 6.98 µM | 2.6 µM and 3.21 µM | 1.74 µM and 1.7 µM | 4.21 µM and 3.95 µM | 2.29 µM and 2.16 µM | 6.18 µM and > 10 µM | 9.81 µM and 5.08 µM |
| COc1ccc(-c2cc(-c3cc(Cl)ccc3Cl)nc3n[nH]c(N)c23)cc1 | > 100 µM | > 100 | > 100 µM | > 100 µM | > 100 µM | 83.6 | > 100 µM | > 100 µM | > 100 | 30.9 µM | 11.6 µM | 58.2 µM | 6.62 µM | 36.9 µM | 8.26 µM | 20.9 µM | 34.6 µM | 8.95 µM |
| CCN(CC)CCOCC[C@H]1CC[C@H]2[C@@H]3[C@H](C)Cc4cc(OS(N)(=O)=O)ccc4[C@H]3CC[C@]12C | 4.31 µM | 4.72 | 7.34 µM | 2.14 µM | 2.92 µM | 2.55 | 3.13 µM | 1.78 µM | 2.59 | 1.53 µM | 1.66 µM | 2.52 µM | 0.626 µM | 1.06 µM | 1.25 µM | 1.24 µM | 0.62 µM | 1.18 µM |
| FC(F)(F)c1nc(N2CCCC2)ncc1-c1nnnn1-c1ccc(Cl)cc1 | 25 µM | > 100 | > 100 µM | > 100 µM | 51.8 µM | 48 | 65.3 µM | 27.5 µM | > 100 | 5.07 µM | 28.5 µM | > 100 µM | 19 µM | 20 µM | 15 µM | 12 µM | 10.7 µM | 33 µM |
| NC1=NC(=O)/C(=C/c2ccccc2[N+](=O)[O-])C(N)=N1 | > 100 µM | > 100 | > 100 µM | > 100 µM | > 100 µM | > 100 | > 100 µM | > 100 µM | > 100 |  |  |  |  |  |  |  |  |  |
